Values of other authors in patent US20040067918A1, “Combination of an aldosterone receptor antagonist and nicotinic acid or a nicotinic acid derivative” (priority 2002, published 2004).

Details: severe heart failure patients on standard therapy, relative to placebo-treated subjects

In the case of `CC(=O)SC1CC2=CC(=O)CCC2(C)C2CCC3(C)C(CCC34CCC(=O)O4)C12` (stereo not drawn) [spironolactone, 17-hydroxy-7α-mercapto-3-oxo-17α-pregn-4-ene-21-carboxylic acid γ-lactone acetate], the incidence of hospitalization is listed as “statistically significant reduction” and the mortality is listed as “statistically significant reduction”.
